# Numbered stars: 1 amine (or outer) side, 2 acyl side, 3 side chain; on linkers, the order of the positions; unused ones are H or OH. Square brackets hold non-standard residues; d marks the D form. Peptide text beside a SMILES is read from it. Gly(N-4-hydroxybenzyl) = O=C(O)CNCc1ccc(O)cc1; X1 = CSCCN(CC(=O)[*:2])[*:1]; Nlys = NCCCCNCC(=O)O
# Experiments:
# neutrophils [1] = test: Degranulation activity of neutrophils (beta-hexosaminidase activity); type: cell-based
# Protocol: The degranulation activity of neutrophils by the analogs in which each amino acid in the structure of WKYMVm was substituted with a β-amino acid was compared and analyzed by measuring beta-hexosaminidase activity.
# The degranulation activity of neutrophils by the peptoid-containing analogs in which a peptoid residue was substituted for K, Y, and M in the structure of WKYMVm was measured.
# neutrophils [2] = test: Superoxide anion (ROS) production in neutrophils; type: cell-based
# Protocol: The effect of superoxide anion production in neutrophils by the peptoid-comprising analogs in which a peptoid residue was substituted for K, Y, and M in the structure of WKYMVm was measured.
# [3] = Degradation half-life in human liver S9 fraction (HPLC); type: in vitro ADME
# Protocol: To measure the ex vivo stability of the eight analogs comprising a β^3-amino acid residue, the degradation half-life of each analog was measured in a human liver S9 fraction. The degradation half-life was measured by culturing the peptide and serum together at 37° C. and measuring the degree to which the compound was reduced using HPLC at each hour.
# The ex vivo stability of the analogs to which a peptoid residue was introduced was measured using the same method as the stability measurement method for the analogs comprising a β-amino acid residue. […] On the other hand, it was confirmed that K peptoid, KY peptoid, and KM peptoid had very high stability so that more than half of them was not degraded even after 24 hours (FIG. 17).
# FIG. 17 = test: FIG. 17
# Excerpt: Table printed on a drawing sheet, FIG. 17
# neutrophils [4] = test: Neutrophil chemotaxis assay using a Boyden chamber; type: cell-based; settings: for chemotactic migration of neutrophils: from 1 nM or 10 nM to 1 μM
# Protocol: To investigate the effect of the WKYMVm peptide analogs on the regulation of immune cell mobility, which a representative function of FPR, a chemotaxis assay was performed using a Boyden chamber.
# To measure the in vitro innate immune activity of four peptides comprising one non-natural β^3-amino acid residue, the effect of enhancing neutrophil mobility was measured.
# FPR2 = FPR2 (Homo sapiens, UniProt P25090); test: cell-based; settings: for increase in intracellular calcium ions through activation of FPR2 (in words): FPR2-expressing RBL-2H3 cell line
# Sequence of FPR2 (P25090 whole entry): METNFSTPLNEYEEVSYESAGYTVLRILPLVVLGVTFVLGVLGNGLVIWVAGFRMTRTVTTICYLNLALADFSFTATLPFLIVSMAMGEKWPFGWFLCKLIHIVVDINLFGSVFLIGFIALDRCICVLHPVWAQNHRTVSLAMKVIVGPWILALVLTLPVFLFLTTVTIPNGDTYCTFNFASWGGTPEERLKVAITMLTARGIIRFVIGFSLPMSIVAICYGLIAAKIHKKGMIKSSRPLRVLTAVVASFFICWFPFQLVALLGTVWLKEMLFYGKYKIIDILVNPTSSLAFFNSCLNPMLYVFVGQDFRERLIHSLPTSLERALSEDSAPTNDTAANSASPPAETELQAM
# Protocol: To investigate whether activation of FPR2 is induced by the WKYMVm peptide analogs, changes in calcium ions were measured in RBL-2H3 cell line that artificially expressed FPR2.
# neutrophils [5] = system: neutrophils
# FPR1 = FPR1 (Homo sapiens, UniProt P21462); test: cell-based; settings: for increase in intracellular calcium ions through activation of FPR1 (in words): FPR1-expressing RBL-2H3 cell line
# Sequence of FPR1 (P21462 whole entry): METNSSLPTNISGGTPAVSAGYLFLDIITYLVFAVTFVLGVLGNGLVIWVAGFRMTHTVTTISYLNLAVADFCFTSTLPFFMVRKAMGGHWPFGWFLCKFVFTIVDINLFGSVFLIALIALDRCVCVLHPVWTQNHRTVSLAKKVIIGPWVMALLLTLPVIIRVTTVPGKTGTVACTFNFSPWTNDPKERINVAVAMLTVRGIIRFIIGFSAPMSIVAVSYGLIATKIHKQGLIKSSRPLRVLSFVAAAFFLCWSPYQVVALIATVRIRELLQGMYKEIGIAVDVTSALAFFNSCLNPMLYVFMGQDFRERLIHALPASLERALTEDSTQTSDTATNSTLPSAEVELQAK
# Protocol: To investigate whether activation of FPR1, which is important in regulating the activity of innate immune cells, is induced by the WKYMVm peptide analogs, changes in calcium ions were measured in RBL-2H3 cell line, a type of mast cell that artificially expressed FPR1. […] On the other hand, an increase in intracellular calcium ions by WKYMVβm (V is a β-amino acid) through activation of FPR1 was not observed.
# 【FIG 16】 = test: 【FIG 16】
# Excerpt: Table printed on a drawing sheet, 【FIG 16】
# [6] = human liver S9 fraction, 37° C., 24-hour measurement period, read-out: degradation half-life
# [7] = human liver S9 fraction, 37° C.
compound,measurement,setting,value
CSCC[C@H](NC(=O)[C@H](Cc1ccc(O)cc1)NC(=O)CN(CCCCN)C(=O)[C@@H](N)Cc1c[nH]c2ccccc12)C(=O)N[C@H](C(=O)N[C@H](CCSC)C(N)=O)C(C)C [K peptoid],degranulation activity of neutrophils,neutrophils [1],promoted the degranulation activity of neutrophils to the extent similar to the WKYMVm peptide
same,superoxide anion production in neutrophils,neutrophils [2],effectively promote superoxide anion production
same,Half-Life,[3]; [6],> 24 h
CSCC[C@@H](NC(=O)[C@@H](NC(=O)CN(CCSC)C(=O)[C@H](Cc1ccc(O)cc1)NC(=O)CN(CCCCN)C(=O)[C@@H](N)Cc1c[nH]c2ccccc12)C(C)C)C(N)=O [KM peptoid] (H-W[Nlys]Y[X1]V[dM]-NH2),Half-Life,"[3]; human, s9",> 24 h
CSCC[C@H](NC(=O)CN(Cc1ccc(O)cc1)C(=O)CN(CCCCN)C(=O)[C@@H](N)Cc1c[nH]c2ccccc12)C(=O)N[C@H](C(=O)N[C@H](CCSC)C(N)=O)C(C)C [KY peptoid] (H-W[Nlys][Gly(N-4-hydroxybenzyl)]MV[dM]-NH2),Half-Life,"[3]; human, s9",> 24 h
CSCC[C@@H](NC(=O)[C@@H](NC(=O)CN(CCSC)C(=O)[C@H](Cc1ccc(O)cc1)NC(=O)[C@H](CCCCN)NC(=O)[C@@H](N)Cc1c[nH]c2ccccc12)C(C)C)C(N)=O [M peptoid] (H-WKY[X1]V[dM]-NH2),degranulation activity of neutrophils,neutrophils [1],promoted the degranulation activity of neutrophils to the extent similar to the WKYMVm peptide
same,Half-Life,FIG. 17,2.5 h
same,superoxide anion production in neutrophils,neutrophils [2],effectively promote superoxide anion production
CSCC[C@@H](CC(=O)N[C@H](C(=O)N[C@H](CCSC)C(N)=O)C(C)C)NC(=O)[C@H](Cc1ccc(O)cc1)NC(=O)[C@H](CCCCN)NC(=O)[C@@H](N)Cc1c[nH]c2ccccc12 [WKYMβVm],degranulation activity of neutrophils,neutrophils [1],induced the degranulation activity of neutrophils very effectively to a similar extent as the WKYMVm peptide
same,chemotactic migration of neutrophils,neutrophils [4],effectively induce chemotactic migration of neutrophils in a concentration-dependent manner
same,EC50,FPR2,0.014 µM
same,increase in intracellular calcium ions through activation of FPR2 (in words),FPR2,increase in calcium ions in a concentration-dependent manner was observed
same,calcium ion-increasing effect in neutrophils,neutrophils [5],highly induced
same,superoxide anion production in neutrophils,neutrophils [2],induce superoxide anion production very effectively to a similar extent as the WKYMVm peptide
same,EC50,FPR1,0.431 µM
same,increase in intracellular calcium ions through activation of FPR1 (in words),FPR1,increase in calcium ions in a concentration-dependent manner was also observed
same,degradation half-life / ex vivo stability compared to the WKYMVm peptide (in words),[3]; [7],half-life similar to that of the WKYMVm peptide
CSCC[C@H](NC(=O)C[C@H](Cc1ccc(O)cc1)NC(=O)[C@H](CCCCN)NC(=O)[C@@H](N)Cc1c[nH]c2ccccc12)C(=O)N[C@H](C(=O)N[C@H](CCSC)C(N)=O)C(C)C [WKYβMVm],degranulation activity of neutrophils,neutrophils [1],induced the degranulation activity of neutrophils very effectively to a similar extent as the WKYMVm peptide
same,chemotactic migration of neutrophils,neutrophils [4],effectively induce chemotactic migration of neutrophils in a concentration-dependent manner
same,EC50,FPR2,0.0139 µM
same,increase in intracellular calcium ions through activation of FPR2 (in words),FPR2,increase in calcium ions in a concentration-dependent manner was observed
same,calcium ion-increasing effect in neutrophils,neutrophils [5],highly induced
same,superoxide anion production in neutrophils,neutrophils [2],induce superoxide anion production very effectively to a similar extent as the WKYMVm peptide
same,EC50,FPR1,0.754 µM
same,increase in intracellular calcium ions through activation of FPR1 (in words),FPR1,increase in calcium ions in a concentration-dependent manner was also observed
same,degradation half-life / ex vivo stability compared to the WKYMVm peptide (in words),[3]; [7],half-life similar to that of the WKYMVm peptide
CSCC[C@@H](CC(=O)N[C@H](C(=O)N[C@H](CCSC)C(N)=O)C(C)C)NC(=O)C[C@H](Cc1ccc(O)cc1)NC(=O)[C@H](CCCCN)NC(=O)[C@@H](N)Cc1c[nH]c2ccccc12 [WKYβMβVm],degranulation activity of neutrophils,neutrophils [1],effectively promoted the degranulation activity of neutrophils
same,"effect of enhancing neutrophil mobility, compared with the WKYMVm peptide",neutrophils [4],maintained similar activity to the WKYMVm peptide
same,calcium ion-increasing effect in neutrophils,neutrophils [5],highly induced
same,superoxide anion production in neutrophils,neutrophils [2],effectively promoted superoxide anion production
same,degradation half-life / ex vivo stability compared to the WKYMVm peptide (in words),[3]; [7],improved ex vivo stability
CSCC[C@H](NC(=O)[C@H](Cc1ccc(O)cc1)NC(=O)C[C@H](CCCCN)NC(=O)[C@@H](N)Cc1c[nH]c2ccccc12)C(=O)N[C@H](C(=O)N[C@H](CCSC)C(N)=O)C(C)C [WKβYMVm],degranulation activity of neutrophils,neutrophils [1],induced the degranulation activity of neutrophils very effectively to a similar extent as the WKYMVm peptide
same,chemotactic migration of neutrophils,neutrophils [4],effectively induce chemotactic migration of neutrophils in a concentration-dependent manner
same,increase in intracellular calcium ions through activation of FPR2 (in words),FPR2,increase in calcium ions in a concentration-dependent manner was observed
same,calcium ion-increasing effect in neutrophils,neutrophils [5],highly induced
same,superoxide anion production in neutrophils,neutrophils [2],induce superoxide anion production very effectively to a similar extent as the WKYMVm peptide
same,EC50,FPR1,0.261 µM
same,increase in intracellular calcium ions through activation of FPR1 (in words),FPR1,increase in intracellular calcium ions was induced
same,half-life increase compared to the WKYMVm peptide,[3]; [7],about 1.9 times
CSCC[C@@H](CC(=O)N[C@H](C(=O)N[C@H](CCSC)C(N)=O)C(C)C)NC(=O)[C@H](Cc1ccc(O)cc1)NC(=O)C[C@H](CCCCN)NC(=O)[C@@H](N)Cc1c[nH]c2ccccc12 [WKβYMβVm],degranulation activity of neutrophils,neutrophils [1],effectively promoted the degranulation activity of neutrophils
same,"effect of enhancing neutrophil mobility, compared with the WKYMVm peptide",neutrophils [4],maintained similar activity to the WKYMVm peptide
same,calcium ion-increasing effect in neutrophils,neutrophils [5],highly induced
same,superoxide anion production in neutrophils,neutrophils [2],effectively promoted superoxide anion production
same,degradation half-life / ex vivo stability compared to the WKYMVm peptide (in words),[3]; [7],improved ex vivo stability
same,half-life increase compared to the WKYMVm peptide,[3]; [7],about 3.3 times
CSCC[C@H](NC(=O)C[C@H](Cc1ccc(O)cc1)NC(=O)C[C@H](CCCCN)NC(=O)[C@@H](N)Cc1c[nH]c2ccccc12)C(=O)N[C@H](C(=O)N[C@H](CCSC)C(N)=O)C(C)C [WKβYβMVm],degranulation activity of neutrophils,neutrophils [1],effectively promoted the degranulation activity of neutrophils
same,"effect of enhancing neutrophil mobility, compared with the WKYMVm peptide",neutrophils [4],slight decrease in activity
same,EC50,FPR2,0.0773 µM
same,increase in intracellular calcium ions through activation of FPR2 (in words),FPR2,activated
same,calcium ion-increasing effect in neutrophils,neutrophils [5],highly induced
same,superoxide anion production in neutrophils,neutrophils [2],effectively promoted superoxide anion production
same,EC50,FPR1,2.44 µM
same,increase in intracellular calcium ions through activation of FPR1 (in words),FPR1,activated
CSCC[C@@H](CC(=O)N[C@H](C(=O)N[C@H](CCSC)C(N)=O)C(C)C)NC(=O)C[C@H](Cc1ccc(O)cc1)NC(=O)C[C@H](CCCCN)NC(=O)[C@@H](N)Cc1c[nH]c2ccccc12 [WKβYβMβVm],degranulation activity of neutrophils,neutrophils [1],did not induce the degranulation activity of neutrophils
same,calcium ion-increasing effect in neutrophils,neutrophils [5],highly induced
same,superoxide anion production in neutrophils,neutrophils [2],did not induce superoxide anion production
same,Half-Life,[3]; [6],> 24 h
CSCC[C@H](NC(=O)CN(Cc1ccc(O)cc1)C(=O)[C@H](CCCCN)NC(=O)[C@@H](N)Cc1c[nH]c2ccccc12)C(=O)N[C@H](C(=O)N[C@H](CCSC)C(N)=O)C(C)C [Y peptoid] (H-WK[Gly(N-4-hydroxybenzyl)]MV[dM]-NH2),degranulation activity of neutrophils,neutrophils [1],promoted the degranulation activity of neutrophils to the extent similar to the WKYMVm peptide
same,Half-Life,FIG. 17,1.1 h
same,superoxide anion production in neutrophils,neutrophils [2],effectively promote superoxide anion production
WKYMVm (W),Half-Life,FIG. 17,2.0 h
same,Half-Life,【FIG 16】,2.6 h
WKYMβVm (βM),Half-Life,【FIG 16】,2.4 h
WKYβMVm (βY),Half-Life,【FIG 16】,2.1 h
WKβYMVm (βK),Half-Life,【FIG 16】,4.9 h
WKβYMβVm (βKβM),Half-Life,【FIG 16】,8.7 h

# — patent publication US20250032573A1, “IMMUNITY-ENHANCING PEPTIDE ANALOGS AND USES THEREOF” (RESEARCH & BUSINESS FOUNDATION SUNGKYUNKWAN UNIVERSITY, priority 2023, published 2025)
